Results on 19 molecules are retold here after patent US20210070748A1, “INHIBITORS OF BRUTONS TYROSINE KINASE” (Pharmacyclics LLC, priority 2015, published 2021).

SMILES strings stand for the structures. Structures can show the parent of a compound that is named as a salt. Where two headings read alike, the source gives them in different places.

Common to all, as to type: biochemical
One experiment deals with T1, JAK3 (Homo sapiens, UniProt P52333).
T1 sequence (P52333 1-1124): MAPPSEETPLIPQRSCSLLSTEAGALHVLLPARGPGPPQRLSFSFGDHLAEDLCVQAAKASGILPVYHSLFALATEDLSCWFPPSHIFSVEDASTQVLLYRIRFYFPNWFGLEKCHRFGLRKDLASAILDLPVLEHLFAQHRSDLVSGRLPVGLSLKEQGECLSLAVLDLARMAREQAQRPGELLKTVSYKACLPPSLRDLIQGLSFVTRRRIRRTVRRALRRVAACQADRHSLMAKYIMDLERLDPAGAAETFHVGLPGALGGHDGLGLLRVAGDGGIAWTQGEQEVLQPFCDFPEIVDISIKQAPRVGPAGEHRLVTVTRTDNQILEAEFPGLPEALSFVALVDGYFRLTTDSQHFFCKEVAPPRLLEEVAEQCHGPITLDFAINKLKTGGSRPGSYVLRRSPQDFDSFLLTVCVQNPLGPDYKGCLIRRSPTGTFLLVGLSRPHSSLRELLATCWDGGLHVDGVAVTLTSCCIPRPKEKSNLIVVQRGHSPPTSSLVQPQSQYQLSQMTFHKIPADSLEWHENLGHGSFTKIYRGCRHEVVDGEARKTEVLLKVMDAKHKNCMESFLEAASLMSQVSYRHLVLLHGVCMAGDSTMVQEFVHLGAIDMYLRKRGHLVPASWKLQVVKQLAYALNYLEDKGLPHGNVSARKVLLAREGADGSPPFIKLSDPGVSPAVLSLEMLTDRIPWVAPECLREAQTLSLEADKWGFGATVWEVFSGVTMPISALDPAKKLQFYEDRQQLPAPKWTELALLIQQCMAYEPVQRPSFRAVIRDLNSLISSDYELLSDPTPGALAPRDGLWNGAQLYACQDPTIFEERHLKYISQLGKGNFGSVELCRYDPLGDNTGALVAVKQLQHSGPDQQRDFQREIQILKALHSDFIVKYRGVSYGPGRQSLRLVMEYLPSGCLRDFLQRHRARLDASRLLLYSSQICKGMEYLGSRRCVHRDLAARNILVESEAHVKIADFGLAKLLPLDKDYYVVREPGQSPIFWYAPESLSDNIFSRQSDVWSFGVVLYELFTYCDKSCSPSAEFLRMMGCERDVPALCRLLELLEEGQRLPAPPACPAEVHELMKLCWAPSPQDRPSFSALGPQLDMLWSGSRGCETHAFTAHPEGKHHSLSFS
The experiment is described as follows: Inhibition of a panel of kinases, in vitro HotSpot kinase assay: JAK3. As to conditions: 1 μM ATP, read-out: JAK3 (IC50).

The target of the next experiment is T2, BTK-WT (Homo sapiens, UniProt Q06187).
T2 construct: purified from insect cells as a full-length construct containing an N-terminal 6X-His tag; His6 (N); made in house; host or cells: insect cells (baculovirus Sf21 in Method B)
The experiment is described as follows: Btk in vitro inhibitory activity (one of Method A TR-FRET, Method B electrophoretic mobility shift, Method C radiometric filter binding). The conditions noted are these: read-out: BTK-WT (IC50). On the technique in general: In EMSA bound probe runs differently from free probe, usually more slowly.

Another experiment deals with LCK (Homo sapiens, UniProt P06239). Kind of experiment: Inhibition of a panel of kinases, in vitro HotSpot kinase assay: LCK. As to conditions: 1 μM ATP, read-out: LCK (IC50).
Sequence of LCK (P06239 whole entry): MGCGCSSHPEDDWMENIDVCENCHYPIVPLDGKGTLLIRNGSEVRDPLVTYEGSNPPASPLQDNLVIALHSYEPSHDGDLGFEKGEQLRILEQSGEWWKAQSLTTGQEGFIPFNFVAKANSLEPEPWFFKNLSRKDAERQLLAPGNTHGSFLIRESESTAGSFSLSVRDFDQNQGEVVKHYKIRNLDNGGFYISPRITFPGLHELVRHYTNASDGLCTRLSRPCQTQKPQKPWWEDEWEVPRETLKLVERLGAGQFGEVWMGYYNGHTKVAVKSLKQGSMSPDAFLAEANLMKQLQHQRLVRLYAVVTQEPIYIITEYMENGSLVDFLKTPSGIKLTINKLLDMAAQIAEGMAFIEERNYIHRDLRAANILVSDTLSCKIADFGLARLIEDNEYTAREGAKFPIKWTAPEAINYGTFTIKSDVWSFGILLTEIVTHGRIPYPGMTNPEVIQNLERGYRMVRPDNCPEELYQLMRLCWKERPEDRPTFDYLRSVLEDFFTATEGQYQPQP

T2 sequence (Q06187 whole entry): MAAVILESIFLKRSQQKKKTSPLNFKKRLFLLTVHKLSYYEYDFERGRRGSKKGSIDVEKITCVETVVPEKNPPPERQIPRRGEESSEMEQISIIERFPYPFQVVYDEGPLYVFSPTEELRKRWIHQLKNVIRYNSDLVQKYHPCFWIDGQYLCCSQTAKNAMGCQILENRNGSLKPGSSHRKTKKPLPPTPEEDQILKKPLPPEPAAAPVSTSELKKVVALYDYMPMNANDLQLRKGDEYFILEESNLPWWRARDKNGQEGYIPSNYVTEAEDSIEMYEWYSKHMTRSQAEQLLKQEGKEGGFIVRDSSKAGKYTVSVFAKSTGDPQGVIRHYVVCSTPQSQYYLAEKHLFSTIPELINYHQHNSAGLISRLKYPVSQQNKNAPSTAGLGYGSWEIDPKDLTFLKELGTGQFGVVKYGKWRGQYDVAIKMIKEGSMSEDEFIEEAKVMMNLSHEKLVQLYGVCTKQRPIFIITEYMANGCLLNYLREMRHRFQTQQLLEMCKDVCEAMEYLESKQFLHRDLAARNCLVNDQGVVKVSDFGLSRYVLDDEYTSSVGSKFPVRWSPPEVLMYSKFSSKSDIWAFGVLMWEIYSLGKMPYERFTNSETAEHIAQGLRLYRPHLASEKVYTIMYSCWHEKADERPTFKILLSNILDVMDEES

Turning to `NC(=O)c1ncc(N2CCC[C@@H](NC(=O)N3Cc4ccccc4C3)C2)nc1Nc1ccc(C2CCN(C3CCCC3)CC2)cc1` [Example A-5, N-[(3R)-1-(5-carbamoyl-6-{[4-(1-cyclopentylpiperidin-4-yl)phenyl]amino}pyrazin-2-yl)piperidin-3-yl]-2,3-dihydro-1H-isoindole-2-carboxamide hydrochloride], the IC50 is 100 to 1000 nM on JAK3 (Table 10, Formula A-I); ≤ 100 nM on BTK-WT (Table 10, Formula A-I); 100 to 1000 nM at LCK (Table 10, Formula A-I).

`Cc1cc(Nc2nc(N3CCC[C@@H](NC(=O)C4CCCCC4)C3)cnc2C(N)=O)sn1` [Example A-28, 5-[(3R)-3-cyclohexaneamidopiperidin-1-yl]-3-[(3-methyl-1,2-thiazol-5-yl)amino]pyrazine-2-carboxamide]: the IC50 at JAK3 (Table 10, Formula A-I) was 1000 to 10000 nM; at BTK-WT (Table 10, Formula A-I), ≤ 100 nM; at LCK (Table 10, Formula A-I) it was 100 to 1000 nM.

Take `C=CC(=O)N1CC[C@@H](Nc2nnc(C(N)=O)c(Nc3ccc(C(C)C)cc3)n2)C1` [Example C-32, (R)-3-(1-acryloylpyrrolidin-3-ylamino)-5-(4-isopropylphenylamino)-1,2,4-triazine-6-carboxamide]: the IC50 was < 100 nM on JAK3 (Table 12, Formula C-I); ≤ 100 nM at BTK-WT (Table 12, Formula C-I); 100 to 1000 nM at LCK (Table 12, Formula C-I).

Regarding `Cc1cc(Nc2nc(N3CC[C@@H](NC(=O)N(C)C)C3)cnc2C(N)=O)sn1` [Example A-51, 5-[(3R)-3-[(dimethylcarbamoyl)amino]pyrrolidin-1-yl]-3-[(3-methyl-1,2-thiazol-5-yl)amino]pyrazine-2-carboxamide], the concentration for half-maximal inhibition (IC50) on JAK3 (Table 10, Formula A-I) is > 10000 nM; at BTK-WT (Table 10, Formula A-I), 1000 to 10000 nM; at LCK (Table 10, Formula A-I), > 10000 nM.

For `Cc1ccc(C(=O)N[C@@H]2CCCN(c3cnc(C(N)=O)c(Nc4cc(C)ns4)n3)C2)c(F)c1` [Example A-24, 5-[(3R)-3-(2-fluoro-4-methylbenzamido)piperidin-1-yl]-3-[(3-methyl-1,2-thiazol-5-yl)amino]pyrazine-2-carboxamide], the IC50 on JAK3 (Table 10, Formula A-I) was > 10000 nM; at BTK-WT (Table 10, Formula A-I), ≤ 100 nM; on LCK (Table 10, Formula A-I), > 10000 nM.

For the molecule `CN1CCN(C(=O)c2ccc(Nc3nc(NC4CCC(NC(=O)N(C)C)CC4)cnc3C(N)=O)cc2)CC1` (stereo not drawn) [Example B-13, 5-(4-(3,3-dimethylureido)cyclo-hexylamino)-3-(4-(4-methylpiperazine-1-carbonyl)phenylamino) pyrazine-2-carboxamide], the IC50 on JAK3 (Table 11, Formula B-I) is 100 to 1000 nM; on BTK-WT (Table 11, Formula B-I), ≤ 100 nM; on LCK (Table 11, Formula B-I), < 100 nM.

As for `CN(C)c1ccc(C(=O)N[C@@H]2CCCN(c3cnc(C(N)=O)c(Nc4ccc(C5CCN(C6CCCC6)CC5)cc4)n3)C2)cc1` [Example A-7, 3-{[4-(1-cyclopentylpiperidin-4-yl)phenyl]amino}-5-[(3R)-3-[4-(dimethylamino)benzamido]piperidin-1-yl]pyrazine-2-carboxamide hydrochloride], the IC50 on JAK3 (Table 10, Formula A-I) was 100 to 1000 nM; at BTK-WT (Table 10, Formula A-I), ≤ 100 nM; at LCK (Table 10, Formula A-I), 100 to 1000 nM.

For the molecule `Cc1cccc(C(=O)N[C@@H]2CCCN(c3cnc(C(N)=O)c(Nc4cc(C)ns4)n3)C2)c1` [Example A-33, 3-[(3-methyl-1,2-thiazol-5-yl)amino]-5-[(3R)-3-(3-methylbenzamido)piperidin-1-yl]pyrazine-2-carboxamide], the half-inhibitory concentration (IC50) at JAK3 (Table 10, Formula A-I) was 1000 to 10000 nM; on BTK-WT (Table 10, Formula A-I) it was ≤ 100 nM; at LCK (Table 10, Formula A-I), 100 to 1000 nM.

As to `Cc1cc(Nc2nc(N3CCC[C@@H](NC(=O)Nc4cccnc4)C3)cnc2C(N)=O)sn1` [Example A-11], the IC50 at JAK3 (Table 10, Formula A-I) was 1000 to 10000 nM; at BTK-WT (Table 10, Formula A-I), ≤ 100 nM; on LCK (Table 10, Formula A-I), 100 to 1000 nM.

Turning to `Cc1cccc(NC(=O)N[C@@H]2CCCN(c3cnc(C(N)=O)c(Nc4cc(C)ns4)n3)C2)c1` [Example A-10, 3-[(3-methyl-1,2-thiazol-5-yl)amino]-5-[(3R)-3-{[(3-methylphenyl)carbamoyl]amino}piperidin-1-yl]pyrazine-2-carboxamide], the 50% inhibitory concentration (IC50) at JAK3 (Table 10, Formula A-I) is 1000 to 10000 nM; on BTK-WT (Table 10, Formula A-I) it was ≤ 100 nM; at LCK (Table 10, Formula A-I), 100 to 1000 nM.

`Cc1cc(Nc2nc(N[C@H]3CC[C@H](NC(=O)c4ccc(N(C)C)cc4)CC3)cnc2C(N)=O)sn1` [Example B-1, 3-[(3-methyl-1,2-thiazol-5-yl)amino]-5-{[(1r,4r)-4-[4-(dimethylamino)benzamido]cyclohexyl]amino}pyrazine-2-carboxamide]: the IC50 at JAK3 (Table 11, Formula B-I) was 100 to 1000 nM; on BTK-WT (Table 11, Formula B-I) it was ≤ 100 nM; on LCK (Table 11, Formula B-I), < 100 nM.

Turning to `Cc1cc(Nc2nc(N[C@H]3CCCN(C(=O)c4ccc(N(C)C)cc4)C3)cnc2C(N)=O)sn1` [Example C-4, 5-{[(3S)-1-[4-(dimethylamino)benzoyl]piperidin-3-yl]amino}-3-[(3-methyl-1,2-thiazol-5-yl)amino]pyrazine-2-carboxamide], the half-maximal inhibitory concentration (IC50) at JAK3 (Table 12, Formula C-I) was > 10000 nM; on BTK-WT (Table 12, Formula C-I) it was ≤ 100 nM; at LCK (Table 12, Formula C-I), > 10000 nM.

On to `CS(=O)(=O)c1ccc(Nc2nc(N3CCC[C@@H](N4CCN(c5cccc(Cl)c5)C4=O)C3)cnc2C(N)=O)cc1` [Example A-53, 5-[(3R)-3-[3-(3-chlorophenyl)-2-oxoimidazolidin-1-yl]piperidin-1-yl]-3-[(4-methanesulfonylphenyl)amino]pyrazine-2-carboxamide], for which the concentration for half-maximal inhibition (IC50) at JAK3 (Table 10, Formula A-I) was 1000 to 10000 nM; at BTK-WT (Table 10, Formula A-I), ≤ 100 nM; on LCK (Table 10, Formula A-I), < 100 nM.

Take `Cc1cc(Nc2nc(N(C)CC3CCN(C(=O)c4ccc(N(C)C)cc4)CC3)cnc2C(N)=O)sn1` [Example C-16, 5-[({1-[4-(dimethylamino)benzoyl]piperidin-4-yl}methyl)(methyl)amino]-3-[(3-methyl-1,2-thiazol-5-yl)amino]pyrazine-2-carboxamide]: the IC50 on JAK3 (Table 12, Formula C-I) was 1000 to 10000 nM; on BTK-WT (Table 12, Formula C-I) it was 100 to 1000 nM; at LCK (Table 12, Formula C-I) it was 1000 to 10000 nM.

`CN1CCN(C(=O)c2ccc(Nc3nc(N[C@H]4CC[C@@H](NC(=O)N(C)C)CC4)cnc3C(N)=O)cc2)CC1` [Example B-16, 5-((1s,4s)-4-(3,3-dimethyl-ureido)cyclohexyl-amino)-3-(4-(4-methylpiperazine-1-carbonyl)phenylamino) pyrazine-2-carboxamide]: the concentration for half-maximal inhibition (IC50) on JAK3 (Table 11, Formula B-I) was 1000 to 10000 nM; at BTK-WT (Table 11, Formula B-I), ≤ 100 nM; at LCK (Table 11, Formula B-I) it was < 100 nM.

`Cc1cc(Nc2nc(N(C)[C@H]3CCCN(C(=O)N(C)C)C3)cnc2C(N)=O)sn1` [Example C-8, 5-([(3S)-1-(dimethylcarbamoyl)piperidin-3-yl](methyl)amino)-3-[(3-methyl-1,2-thiazol-5-yl)amino]pyrazine-2-carboxamide]: the IC50 at JAK3 (Table 12, Formula C-I) lay in the range of 1000 to 10000 nM; at BTK-WT (Table 12, Formula C-I), 100 to 1000 nM; on LCK (Table 12, Formula C-I), 1000 to 10000 nM.

On to `Cc1cc(Nc2nc(N3CCC(CNC(=O)N(C)C)CC3)cnc2C(N)=O)sn1` [Example A-75, 5-(4-{[(dimethylcarbamoyl)amino]methyl}piperidin-1-yl)-3-[(3-methyl-1,2-thiazol-5-yl)amino]pyrazine-2-carboxamide], for which the IC50 at JAK3 (Table 10, Formula A-I) was < 100 nM; at BTK-WT (Table 10, Formula A-I), ≤ 100 nM; on LCK (Table 10, Formula A-I) it was 100 to 1000 nM.

As for `Cc1cc(Nc2nc(N3CCC[C@@H](NC(=O)c4ccc(F)cc4)C3)cnc2C(N)=O)sn1` [Example A-20, 5-[(3R)-3-(4-fluorobenzamido)piperidin-1-yl]-3-[(3-methyl-1,2-thiazol-5-yl)amino]pyrazine-2-carboxamide], the IC50 on JAK3 (Table 10, Formula A-I) was > 10000 nM; at BTK-WT (Table 10, Formula A-I) it was ≤ 100 nM; at LCK (Table 10, Formula A-I), 100 to 1000 nM.

On to `Cc1cc(Nc2nc(N[C@@H]3CCN(C(=O)c4ccccc4)C3)cnc2C(N)=O)sn1` [Example C-11, 5-{[(3R)-1-benzoylpyrrolidin-3-yl]amino}-3-[(3-methyl-1,2-thiazol-5-yl)amino]pyrazine-2-carboxamide hydrochloride], for which the 50% inhibitory concentration (IC50) on JAK3 (Table 12, Formula C-I) is 1000 to 10000 nM; at BTK-WT (Table 12, Formula C-I), ≤ 100 nM; at LCK (Table 12, Formula C-I) it was 1000 to 10000 nM.

As a reminder, the IC50 is the concentration that gives 50% inhibition.
